Article PMC10220492, “Investigating the mechanism of photoisomerization in jellyfish rhodopsin with the counterion at an atypical position” (The Journal of Biological Chemistry, 2023)

Target: T1, JelRh (box jellyfish rhodopsin) (Carybdea rastonii, UniProt B6F0Y5)
T1 construct: gene cubop; opsin gene in pFastBac HT vector with C-terminal rho 1D4 tag (TETSQVAPA), Sf9 baculovirus expression, DDM-solubilized, 1D4-purified, wild type reconstituted in PC liposomes
T1 sequence (B6F0Y5 1-330): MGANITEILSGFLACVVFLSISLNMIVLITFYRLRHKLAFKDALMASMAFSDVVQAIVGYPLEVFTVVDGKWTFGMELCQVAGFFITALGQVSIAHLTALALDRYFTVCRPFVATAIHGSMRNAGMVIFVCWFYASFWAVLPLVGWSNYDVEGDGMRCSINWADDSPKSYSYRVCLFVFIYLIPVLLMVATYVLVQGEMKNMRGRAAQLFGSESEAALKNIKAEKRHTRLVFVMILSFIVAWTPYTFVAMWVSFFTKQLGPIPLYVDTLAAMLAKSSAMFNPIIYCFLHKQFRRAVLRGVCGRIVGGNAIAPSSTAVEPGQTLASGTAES
Test: low-temperature UV-visible and FTIR difference spectroscopy of reconstituted pigment
Assay type: binding
Settings: 77 K

CC1=C(/C=C/C(C)=C\C=C\C(C)=C\C=O)C(C)(C)CCC1 [9-cis-retinal]
low-temperature UV-visible and FTIR difference spectroscopy of reconstituted pig (covalent (protonated Schiff base), 9-cis bound form (Iso-JelRh) made in situ by >520 nm illumination of Batho): confirming the formation of the 9-cis bound form (so-called Iso-rhodopsin or Iso)

CC1=C(/C=C/C(C)=C/C=C/C(C)=C/C=O)C(C)(C)CCC1 [all-trans-retinal]
low-temperature UV-visible and FTIR difference spectroscopy of reconstituted pig (covalent (Schiff base), all-trans bound Batho intermediate made in situ by 500 nm illumination): the isomerization from 11-cis to all-trans retinal in JelRh is similar to that of BovRh

CC1=C(/C=C/C(C)=C/C=C\C(C)=C\C=O)C(C)(C)CCC1 [11-cis-retinal]
low-temperature UV-visible and FTIR difference spectroscopy of reconstituted pig (covalent (protonated Schiff base), PC liposomes, hydrated film, 11-cis-retinal added at 30 uM to membranes): The sample after membrane preparation was reconstituted with 11-cis-retinal overnight
